Results as given in US20240109917A1 (ACTELION PHARMACEUTICALS LTD, priority 2020, published 2024).
Like-named read-outs stand apart in the source and are kept apart here.

Columns and labels:
[1] = molecular target: Tb-labeled inactive PDGFRβ (Homo sapiens (Human), UniProt P09619); assay: PDGFRβ LanthaScreen Assay; format: binding; conditions: read-out: PDGFR Lantha IC50
PDGFRβ = PDGFRβ (Rattus norvegicus (Rat), UniProt Q05030); assay: PDGFRβ Cellular Assay (PDGFRb P-Y751 HTRF in A10 cells stimulated with PDGF-BB); format: cell-based
How it was run: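 Rat A10 cells, plated overnight, were treated with compound for 3 hours, then stimulated with PDGF-BB (working stock 100 ng/mL in 10% FBS medium). After lysis, PDGFRβ P-Y751 was detected by HTRF.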

VEGFR2, unphosphorylated = VEGFR2, unphosphorylated (Homo sapiens (Human), UniProt P35968); assay: VEGFR ADP GLO Assay; format: biochemical
Chain of VEGFR2, unphosphorylated (P35968 20-1356): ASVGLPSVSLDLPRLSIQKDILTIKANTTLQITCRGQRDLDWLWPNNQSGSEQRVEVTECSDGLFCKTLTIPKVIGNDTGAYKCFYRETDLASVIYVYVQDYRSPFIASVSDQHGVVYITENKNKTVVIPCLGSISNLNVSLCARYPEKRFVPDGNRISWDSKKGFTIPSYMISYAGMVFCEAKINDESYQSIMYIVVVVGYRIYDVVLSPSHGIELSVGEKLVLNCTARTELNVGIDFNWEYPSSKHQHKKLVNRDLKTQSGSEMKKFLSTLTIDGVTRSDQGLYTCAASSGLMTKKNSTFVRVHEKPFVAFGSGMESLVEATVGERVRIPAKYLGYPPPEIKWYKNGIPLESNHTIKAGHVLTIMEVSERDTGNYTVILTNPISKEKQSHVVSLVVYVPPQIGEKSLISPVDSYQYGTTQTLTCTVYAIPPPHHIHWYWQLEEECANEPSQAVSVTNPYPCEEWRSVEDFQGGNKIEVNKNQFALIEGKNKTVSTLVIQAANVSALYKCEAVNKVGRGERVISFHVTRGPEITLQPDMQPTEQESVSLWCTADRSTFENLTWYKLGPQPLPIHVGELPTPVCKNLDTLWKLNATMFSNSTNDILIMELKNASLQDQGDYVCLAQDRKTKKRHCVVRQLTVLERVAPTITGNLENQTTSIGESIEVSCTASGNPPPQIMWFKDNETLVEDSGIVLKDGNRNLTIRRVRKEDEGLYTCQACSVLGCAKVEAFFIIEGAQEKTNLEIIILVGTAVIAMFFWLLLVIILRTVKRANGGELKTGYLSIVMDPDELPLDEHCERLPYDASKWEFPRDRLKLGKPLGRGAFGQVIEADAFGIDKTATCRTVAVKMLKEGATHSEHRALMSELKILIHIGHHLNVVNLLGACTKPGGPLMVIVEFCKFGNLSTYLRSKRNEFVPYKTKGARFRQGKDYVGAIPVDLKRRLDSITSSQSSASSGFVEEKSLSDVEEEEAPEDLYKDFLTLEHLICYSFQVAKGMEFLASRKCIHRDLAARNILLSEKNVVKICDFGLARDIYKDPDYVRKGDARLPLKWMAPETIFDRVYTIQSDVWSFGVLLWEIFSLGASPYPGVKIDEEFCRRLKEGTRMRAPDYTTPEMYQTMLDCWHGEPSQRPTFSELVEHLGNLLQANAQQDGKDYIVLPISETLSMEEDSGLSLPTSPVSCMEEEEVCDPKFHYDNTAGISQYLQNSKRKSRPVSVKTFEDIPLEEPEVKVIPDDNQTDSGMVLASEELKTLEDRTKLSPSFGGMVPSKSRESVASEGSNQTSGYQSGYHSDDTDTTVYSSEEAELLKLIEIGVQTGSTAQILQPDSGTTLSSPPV

Chain of PDGFRβ (Q05030 32-1097): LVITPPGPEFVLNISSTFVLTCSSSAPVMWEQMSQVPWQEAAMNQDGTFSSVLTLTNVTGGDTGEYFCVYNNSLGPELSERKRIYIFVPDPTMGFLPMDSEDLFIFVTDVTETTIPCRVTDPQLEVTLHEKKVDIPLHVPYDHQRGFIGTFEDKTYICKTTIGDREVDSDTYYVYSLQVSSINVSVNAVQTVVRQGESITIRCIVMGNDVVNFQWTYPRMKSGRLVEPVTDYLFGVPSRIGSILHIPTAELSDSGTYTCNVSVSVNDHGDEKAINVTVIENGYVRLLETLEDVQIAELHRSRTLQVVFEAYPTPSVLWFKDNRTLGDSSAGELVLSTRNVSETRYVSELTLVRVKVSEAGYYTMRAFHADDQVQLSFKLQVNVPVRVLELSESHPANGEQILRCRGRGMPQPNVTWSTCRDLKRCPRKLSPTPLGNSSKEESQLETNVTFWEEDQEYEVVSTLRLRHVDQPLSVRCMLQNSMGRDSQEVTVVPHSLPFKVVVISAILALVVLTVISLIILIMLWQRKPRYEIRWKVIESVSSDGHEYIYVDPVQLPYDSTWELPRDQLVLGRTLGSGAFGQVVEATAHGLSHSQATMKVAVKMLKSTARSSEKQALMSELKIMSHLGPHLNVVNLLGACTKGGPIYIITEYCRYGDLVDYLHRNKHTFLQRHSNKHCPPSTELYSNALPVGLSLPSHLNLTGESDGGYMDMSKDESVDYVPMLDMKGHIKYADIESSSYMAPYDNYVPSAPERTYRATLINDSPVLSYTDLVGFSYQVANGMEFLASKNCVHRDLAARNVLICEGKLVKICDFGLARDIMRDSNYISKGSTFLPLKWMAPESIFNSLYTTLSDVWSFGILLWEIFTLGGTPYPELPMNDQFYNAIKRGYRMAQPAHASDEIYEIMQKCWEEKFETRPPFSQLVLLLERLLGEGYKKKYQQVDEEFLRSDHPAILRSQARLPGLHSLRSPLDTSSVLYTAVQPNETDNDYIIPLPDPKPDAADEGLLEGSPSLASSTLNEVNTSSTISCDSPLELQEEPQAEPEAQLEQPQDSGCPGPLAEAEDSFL
Chain of Tb-labeled inactive PDGFRβ (P09619 33-1106): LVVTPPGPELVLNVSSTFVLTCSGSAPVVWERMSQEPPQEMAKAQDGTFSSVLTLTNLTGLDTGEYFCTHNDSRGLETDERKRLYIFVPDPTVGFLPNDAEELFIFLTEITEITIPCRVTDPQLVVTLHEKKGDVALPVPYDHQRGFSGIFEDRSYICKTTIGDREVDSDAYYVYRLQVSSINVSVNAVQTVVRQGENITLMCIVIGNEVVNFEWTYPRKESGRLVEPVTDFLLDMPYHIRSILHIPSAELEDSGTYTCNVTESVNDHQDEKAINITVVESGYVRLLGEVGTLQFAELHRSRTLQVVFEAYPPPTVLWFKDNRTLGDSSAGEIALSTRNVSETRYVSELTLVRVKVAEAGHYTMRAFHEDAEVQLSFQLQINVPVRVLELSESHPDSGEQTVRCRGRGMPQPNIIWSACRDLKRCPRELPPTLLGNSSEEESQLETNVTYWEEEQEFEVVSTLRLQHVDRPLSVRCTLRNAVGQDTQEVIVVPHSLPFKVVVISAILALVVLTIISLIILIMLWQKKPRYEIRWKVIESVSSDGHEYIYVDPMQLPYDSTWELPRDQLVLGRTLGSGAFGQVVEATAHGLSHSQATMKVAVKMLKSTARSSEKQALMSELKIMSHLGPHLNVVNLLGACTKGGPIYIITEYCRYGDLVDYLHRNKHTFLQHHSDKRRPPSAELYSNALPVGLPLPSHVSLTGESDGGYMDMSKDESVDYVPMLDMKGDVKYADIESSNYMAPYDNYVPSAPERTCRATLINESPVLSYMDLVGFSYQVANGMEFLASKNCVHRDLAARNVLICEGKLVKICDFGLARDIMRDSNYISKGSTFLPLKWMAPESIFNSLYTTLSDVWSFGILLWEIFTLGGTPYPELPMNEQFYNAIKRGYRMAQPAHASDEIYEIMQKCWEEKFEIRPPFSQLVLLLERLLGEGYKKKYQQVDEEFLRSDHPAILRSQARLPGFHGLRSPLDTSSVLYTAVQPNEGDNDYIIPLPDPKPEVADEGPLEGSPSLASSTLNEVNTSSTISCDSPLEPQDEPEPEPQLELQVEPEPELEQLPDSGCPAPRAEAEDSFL

`Cc1ncc(C(=O)NCCN2CC3CCC2CC3)cc1NC(=O)c1cnn2cc(-c3cnn4c3COCC4)sc12` [Example 459, N-(5-((2-(2-azabicyclo[2.2.2]octan-2-yl)ethyl)carbamoyl)-2-methylpyridin-3-yl)-2-(6,7-dihydro-4H-pyrazolo[5,1-c][1,4]oxazin-3-yl)pyrazolo[5,1-b]thiazole-7-carboxamide] was tested, and the IC50 [1] was 1.5 nM, the IC50 (PDGFRβ; read-out: PDGFR Cellular IC50) was 33.7 nM and the IC50 (VEGFR2, unphosphorylated) was > 7500 nM.

With `Cc1ncc(C(=O)NCCN2CCCC2(C)C)cc1NC(=O)c1cnn2cc(-c3cnn4c3OCCC4)sc12` [Example 460, 2-(6,7-dihydro-5H-pyrazolo[5,1-b][1,3]oxazin-3-yl)-N-(5-((2-(2,2-dimethylpyrrolidin-1-yl)ethyl)carbamoyl)-2-methylpyridin-3-yl)pyrazolo[5,1-b]thiazole-7-carboxamide] the IC50 [1] was 1.6 nM, the IC50 (PDGFRβ; read-out: PDGFR Cellular IC50) was 13.4 nM and the IC50 (VEGFR2, unphosphorylated) was > 7500 nM.

In the case of `Cc1ncc(NC(=O)CN2CCC(C)C2)cc1NC(=O)c1cnn2cc(-c3cn(C)nc3C)sc12` (stereo not drawn) [Example 446, 2-(1,3-Dimethyl-1H-pyrazol-4-yl)-N-(2-methyl-5-(2-(3-methylpyrrolidin-1-yl)acetamido)pyridin-3-yl)pyrazolo[5,1-b]thiazole-7-carboxamide], the IC50 [1] is reported as 3.5 nM, the IC50 (PDGFRβ; read-out: PDGFR Cellular IC50) is reported as 3 nM and the IC50 (VEGFR2, unphosphorylated) is reported as > 7500 nM.

With `Cc1ncc(NC(=O)C[C@H]2CCN(C(C)C)C2)cc1NC(=O)c1cnn2cc(-c3cnn(C)c3)sc12` [Example 465, (R)—N-(5-(2-(1-isopropylpyrrolidin-3-yl)acetamido)-2-methylpyridin-3-yl)-2-(1-methyl-1H-pyrazol-4-yl)pyrazolo[5,1-b]thiazole-7-carboxamide] the IC50 [1] was 73.9 nM, the IC50 (PDGFRβ; read-out: PDGFR Cellular IC50) was 1860 nM and the IC50 (VEGFR2, unphosphorylated) was > 7500 nM.

For `COCCn1cc(-c2cn3ncc(C(=O)Nc4cc(NC(=O)C5(CN6CCC[C@@H]6C)CC5)cnc4C)c3s2)cn1` [Example 452, (S)-2-(1-(2-methoxyethyl)-1H-pyrazol-4-yl)-N-(2-methyl-5-(1-((2-methylpyrrolidin-1-yl)methyl)cyclopropanecarboxamido)pyridin-3-yl)pyrazolo[5,1-b]thiazole-7-carboxamide], the IC50 [1] was 376 nM, the IC50 (PDGFRβ; read-out: PDGFR Cellular IC50) was 91.6 nM and the IC50 (VEGFR2, unphosphorylated) was > 7500 nM.

For `Cc1cc(C(=O)NCCN2CCCC23CCC3)sc1NC(=O)c1cnn2cc(-c3cnn(C)c3)sc12` [Example 35, N-(5-((2-(5-azaspiro[3.4]octan-5-yl)ethyl)carbamoyl)-3-methylthiophen-2-yl)-2-(1-methyl-1H-pyrazol-4-yl)pyrazolo[5,1-b]thiazole-7-carboxamide], the IC50 [1] was 71.4 nM, the IC50 (PDGFRβ; read-out: PDGFR Cellular IC50) was 33.6 nM and the IC50 (VEGFR2, unphosphorylated) was > 7500 nM.

`Cc1ncc(NC(=O)CN2CCCC2(C)C)cc1NC(=O)c1cnn2cc(-c3cnn4c3COCC4)sc12` [Example 458, 2-(6,7-dihydro-4H-pyrazolo[5,1-c][1,4]oxazin-3-yl)-N-(5-(2-(2,2-dimethylpyrrolidin-1-yl)acetamido)-2-methylpyridin-3-yl)pyrazolo[5,1-b]thiazole-7-carboxamide] was tested, and the IC50 [1] was 1.7 nM, the IC50 (PDGFRβ; read-out: PDGFR Cellular IC50) was 2 nM and the IC50 (VEGFR2, unphosphorylated) was > 7500 nM.

`Cc1ncc(NC(=O)CN2CCCC2(C)C)cc1NC(=O)c1cnn2cc(-c3cn(C)nc3C)sc12` [Example 444, 2-(1,3-Dimethyl-1H-pyrazol-4-yl)-N-(5-(2-(2,2-dimethylpyrrolidin-1-yl)acetamido)-2-methylpyridin-3-yl)pyrazolo[5,1-b]thiazole-7-carboxamide] was tested, and the IC50 [1] was 1.8 nM, the IC50 (PDGFRβ; read-out: PDGFR Cellular IC50) was 1.3 nM and the IC50 (VEGFR2, unphosphorylated) was > 7500 nM.

In the case of `Cc1ncc(NC(=O)CN2CCCC2(C)C)cc1NC(=O)c1cnn2cc(-c3cnn(C(C)(C)CO)c3)sc12` [Example 457, N-(5-(2-(2,2-dimethylpyrrolidin-1-yl)acetamido)-2-methylpyridin-3-yl)-2-(1-(1-hydroxy-2-methylpropan-2-yl)-1H-pyrazol-4-yl)pyrazolo[5,1-b]thiazole-7-carboxamide], the IC50 [1] is reported as 3.4 nM, the IC50 (PDGFRβ; read-out: PDGFR Cellular IC50) is reported as 4 nM and the IC50 (VEGFR2, unphosphorylated) is reported as > 7500 nM.

In the case of `Cc1ncc(NC(=O)CC2CN(C)C2)cc1NC(=O)c1cnn2cc(-c3cnn4c3CCC4)sc12` [Example 468, 2-(5,6-dihydro-4H-pyrrolo[1,2-b]pyrazol-3-yl)-N-(2-methyl-5-(2-(1-methylazetidin-3-yl)acetamido)pyridin-3-yl)pyrazolo[5,1-b]thiazole-7-carboxamide], the IC50 [1] is reported as 149 nM, the IC50 (PDGFRβ; read-out: PDGFR Cellular IC50) is reported as 2000 nM and the IC50 (VEGFR2, unphosphorylated) is reported as > 7500 nM.

With `COc1ccncc1-c1cn2ncc(C(=O)Nc3cc(NC(=O)CN4CC(C)(C)C4)cnc3C)c2s1` [Example 40, N-(5-(2-(3,3-dimethylazetidin-1-yl)acetamido)-2-methylpyridin-3-yl)-2-(4-methoxypyridin-3-yl)pyrazolo[5,1-b]thiazole-7-carboxamide] the IC50 [1] was 1.7 nM, the IC50 (PDGFRβ; read-out: PDGFR Cellular IC50) was 2 nM and the IC50 (VEGFR2, unphosphorylated) was 6180 nM.

For `Cc1ncc(NC(=O)CN2C[C@@H](C)O[C@H](C)C2)cc1NC(=O)c1cnn2cc(-c3cn(C)nc3C)sc12` [Example 431], the IC50 [1] was 3.5 nM, the IC50 (PDGFRβ; read-out: PDGFR Cellular IC50) was 5 nM and the IC50 (VEGFR2, unphosphorylated) was > 7500 nM.

In the case of `Cc1ncc(C(=O)NCCN2CCCC2(C)C)cc1NC(=O)c1cnn2cc(-c3cnn4c3COCC4)sc12` [Example 450, 2-(6,7-dihydro-4H-pyrazolo[5,1-c][1,4]oxazin-3-yl)-N-(5-((2-(2,2-dimethylpyrrolidin-1-yl)ethyl)carbamoyl)-2-methylpyridin-3-yl)pyrazolo[5,1-b]thiazole-7-carboxamide], the IC50 [1] is reported as 2.4 nM, the IC50 (PDGFRβ; read-out: PDGFR Cellular IC50) is reported as 21.6 nM and the IC50 (VEGFR2, unphosphorylated) is reported as > 7500 nM.

For `Cc1ncc(NC(=O)CN2CCCC23CCC3)cc1NC(=O)c1cnn2cc(-c3cnn4c3COCC4)sc12` [Example 417, N-(5-(2-(5-azaspiro[3.4]octan-5-yl)acetamido)-2-methylpyridin-3-yl)-2-(6,7-dihydro-4H-pyrazolo[5,1-c][1,4]oxazin-3-yl)pyrazolo[5,1-b]thiazole-7-carboxamide], the IC50 [1] was 2.8 nM, the IC50 (PDGFRβ; PDGFR Cellular IC50) was 2.6 nM and the IC50 (VEGFR2, unphosphorylated) was > 7500 nM.

`Cc1ncc(NC(=O)CNC2CCCC2)cc1NC(=O)c1cnn2cc(-c3cnn4c3OCCC4)sc12` [Example 421, N-(5-(2-(cyclopentylamino)acetamido)-2-methylpyridin-3-yl)-2-(6,7-dihydro-5H-pyrazolo[5,1-b][1,3]oxazin-3-yl)pyrazolo[5,1-b]thiazole-7-carboxamide] was tested, and the IC50 [1] was 2 nM, the IC50 (PDGFRβ; read-out: PDGFR Cellular IC50) was 6.2 nM and the IC50 (VEGFR2, unphosphorylated) was > 7500 nM.

`Cc1ncc(NC(=O)CN2CC(C)(C)C2)cc1NC(=O)c1cnn2cc(-c3cnn4c3CCC4)sc12` [Example 409, 2-(5,6-dihydro-4H-pyrrolo[1,2-b]pyrazol-3-yl)-N-(5-(2-(3,3-dimethylazetidin-1-yl)acetamido)-2-methylpyridin-3-yl)pyrazolo[5,1-b]thiazole-7-carboxamide] gave an IC50 [1] of 1.3 nM, an IC50 (PDGFRβ; read-out: PDGFR Cellular IC50) of 1.6 nM and an IC50 (VEGFR2, unphosphorylated) of 3370 nM.

For `Cc1ncc(C(=O)NCCN2CCCC23CCC3)cc1NC(=O)c1cnn2cc(-c3cnn4c3OCCC4)sc12` [Example 478, N-(5-((2-(5-azaspiro[3.4]octan-5-yl)ethyl)carbamoyl)-2-methylpyridin-3-yl)-2-(6,7-dihydro-5H-pyrazolo[5,1-b][1,3]oxazin-3-yl)pyrazolo[5,1-b]thiazole-7-carboxamide], the IC50 [1] was 3 nM, the IC50 (PDGFRβ; read-out: PDGFR Cellular IC50) was 4.6 nM and the IC50 (VEGFR2, unphosphorylated) was 2560 nM.

`Cc1ncc(NC(=O)CN2CC(C)(C)C2)cc1NC(=O)c1cnn2cc(-c3ccnnc3C)sc12` [Example 410, N-(5-(2-(3,3-dimethylazetidin-1-yl)acetamido)-2-methylpyridin-3-yl)-2-(3-methylpyridazin-4-yl)pyrazolo[5,1-b]thiazole-7-carboxamide] was tested, and the IC50 [1] was 190 nM, the IC50 (PDGFRβ; PDGFR Cellular IC50) was 270 nM and the IC50 (VEGFR2, unphosphorylated) was > 7500 nM.
